# Values joined by “and” are separate entries in the source; they are usually repeats but may differ in a detail not shown here. Equal values may be shown once.
# What was measured:
# [1] = Struck et al., J. Med. Chem., 9, 414-417 (1966); cited from earlier work
# P388 leukemia = test: in vivo ip P388 lymphocytic leukemia mouse model; parameters: species or system mouse (B6D2F1); settings: mice bearing ip P388 leukemia; ip Days 1-5; figures separated by slashes are from separate experiments
# Description: P388 lymphocytic leukemia is currently the most widely used animal tumor model for screening for antitumor agents and for detailed evaluation of active compounds. This tumor system is widely accepted as an antitumor agent screening tool because it is sensitive to virtually all of the clinically active antineoplastic agents; quantitative and reproducible; amenable for large-scale screening; and predictive for activity in other animal tumor models.
# 10^6 P388 leukemia cells are inoculated ip in B6D2F1 mice. Twenty-four hours later, if the tumor inoculum proves to be free of bacterial contamination (as determined by 24 hours incubation in thioglycollate broth), animals are randomized into groups of 6 and housed in shoebox cages. The compound to be evaluated is dissolved in a minimal volume of N,N-dimethylacetamide (DMA). An equal volume of saline is added; if the drug comes out of solution an equal volume of polyethoxylated castor oil is added and then saline qs to a concentration such that the desired dose is delivered in 0.5 ml. The final concentration of DMA and polyethoxylated castor oil is 10 percent. Dilutions for lower doses are made with saline so there is a decreasing proportion of organic solvents in the vehicle with decreasing dosage. This vehicle provides a soluble formulation. […] Animals are monitored daily for mortality and experiments are terminated after 45 days. […]
# B16 melanoma = test: in vivo ip B16 melanoma assay; parameters: species or system mouse (B6D2F1); settings: mice bearing ip B16 melanoma; ip daily for 10 days
# Procedure: (§1) In this system, groups of eight B6D2F1 mice are inoculated ip with 0.5 ml of a 10% (w:v) brei of B15 melanoma prepared from pooled sc tumors excised at 14-21 days from […] donor mice. Daily treatment is begun 24 hours after tumor implantation and is continued daily for ten (10) days. The route of drug administration is ip. The mice are monitored daily for survival for sixty (60) days. Antitumor activity is assessed by prolongation of median survival time. An ILS of ≥25% indicates activity in this tumor model.
# [2] = system: M5076 reticulum cell sarcoma; test: ip M5076 reticulum cell sarcoma tumor model; type: in vivo, mouse (B6D2F); settings: mice bearing ip M5076 reticulum cell sarcoma; ip daily for 10 days
# Procedure: (§2) Another chemosensitive tumor model is intraperitoneally (ip) implanted M5076 reticulum cell sarocma in mice. In this system B6D2F female mice are inoculated with 0.5 ml of a 10 percent (w:v) brei of M5076 prepared from pooled subcutaneous (sc) tumors excised at about 21 days from C57B1/6 donors. Drugs are administered ip. Daily treatment is begun 24 hours after implantation and is continued for ten days. The treatment regimen for M5076 is more prolonged than for P388 because of the slower growth rate and longer control survival time of the M5076 tumor. A drug is considered active in this tumor model if it produces ≥25% ILS.
# [3] = maximally tolerated dose, mice, ip qD x 10 (Table B); type: in vivo, mouse (B6D2F1); settings: B6D2F1 mice, ip qD x 10 regimen
# Procedure: as §1
# ^(b) maximally tolerated dose for B6D2F1 mice on an ip qD .times
# [4] = maximally tolerated dose, mice, ip qD x 10 (Table C); type: in vivo, mouse (B6D2F female); settings: B6D2F female mice, ip qD x 10 regimen
# Procedure: as §2
# ^(b) maximally tolerated dose for B6D2F female mice on ip qD ×
SMILES,cytotoxic activity [1],ILS (max): maximum increase in lifespan (P388 leukemia),ILS: maximum increase in lifespan (B16 melanoma),ILS (MAX): maximum increase in lifespan [2],MTD (maximally tolerated dose) [3],MTD (maximally tolerated dose) [4]
"c1ccc(P(CCP(c2ccccc2)c2ccccc2)c2ccccc2)cc1 [1,2-bis(diphenylphosphino)ethane]",cytotoxic activity,–,–,–,–,–
"[Cl][Au].c1ccc(P(CCP(CCP(c2ccccc2)c2ccccc2)c2ccccc2)CCP(c2ccccc2)c2ccccc2)cc1 (stereo not drawn) [Compound 1, Chloro[1,1,4,7,10,10-hexaphenyl-1,4,7,10-tetraphosphodecane-P^1, P^4, P^7, P^10]gold(I)]",–,40% and 65%,37%,38%,2 mg/kg,2 mg/kg
